Reference: patent US20220204539A1, “CD73 INHIBITORS” (BioArdis LLC, priority 2019, published 2022)

Assays:
[1] = biological target: T1, Cell surface CD73 of U87 MG human glioblastoma cells (Homo sapiens, UniProt P21589); assay: CD73 Cellular Assay; assay type: cell-based; settings: 5000 cells per well, 30 μM AMP substrate, read-out: Potency (IC50, CD73 cellular assay)
T1 construct: Cell surface CD73 catalyzes the conversion of adenosine monophosphate (AMP) to adenosine and inorganic phosphate; endogenous in cells; host or cells: U87 MG human glioblastoma cells
T1 sequence (P21589 27-549): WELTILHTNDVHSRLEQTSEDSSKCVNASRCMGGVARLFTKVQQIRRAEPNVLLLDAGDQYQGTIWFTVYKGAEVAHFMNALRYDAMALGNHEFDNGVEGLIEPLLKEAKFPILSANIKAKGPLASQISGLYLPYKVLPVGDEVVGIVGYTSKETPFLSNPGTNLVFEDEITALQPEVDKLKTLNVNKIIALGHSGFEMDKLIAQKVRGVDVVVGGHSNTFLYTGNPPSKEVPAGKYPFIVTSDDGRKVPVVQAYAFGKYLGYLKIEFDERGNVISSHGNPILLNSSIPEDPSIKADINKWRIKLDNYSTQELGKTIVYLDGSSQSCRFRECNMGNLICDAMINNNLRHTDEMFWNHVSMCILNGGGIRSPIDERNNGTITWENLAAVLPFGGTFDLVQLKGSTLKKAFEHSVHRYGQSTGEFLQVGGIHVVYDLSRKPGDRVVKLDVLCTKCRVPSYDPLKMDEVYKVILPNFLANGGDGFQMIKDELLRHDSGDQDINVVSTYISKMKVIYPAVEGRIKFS
Summary of the method: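 U87 MG cells (5000/well) preincubated with compound 30 min at 37 °C, 5% CO2, in HEPES-buffered saline pH 7.4 with 0.5% DMSO, then 30 μM AMP (final) for 50 min. Released phosphate in supernatant read colorimetrically at 635 nm; IC50 from four-parameter logistic fit versus cells-plus-substrate and cells-only controls.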

[2] = biological target: T2, Recombinant Human 5′-Nucleotidase (CD73) (Homo sapiens, UniProt P21589); assay: CD73 Enzyme Assay; assay type: biochemical; settings: human CD73 0.5 nM, AMP 30 μM, PiColorLock phosphate detection; read-out: Potency (IC50, CD73 enzyme assay)
T2 construct: CHO derived CD73 (Trp27-Lys547), with a C-terminal 6-His tag; 6-His (C); purchased R&D 5795-EN; host or cells: CHO
T2 sequence (P21589 27-547): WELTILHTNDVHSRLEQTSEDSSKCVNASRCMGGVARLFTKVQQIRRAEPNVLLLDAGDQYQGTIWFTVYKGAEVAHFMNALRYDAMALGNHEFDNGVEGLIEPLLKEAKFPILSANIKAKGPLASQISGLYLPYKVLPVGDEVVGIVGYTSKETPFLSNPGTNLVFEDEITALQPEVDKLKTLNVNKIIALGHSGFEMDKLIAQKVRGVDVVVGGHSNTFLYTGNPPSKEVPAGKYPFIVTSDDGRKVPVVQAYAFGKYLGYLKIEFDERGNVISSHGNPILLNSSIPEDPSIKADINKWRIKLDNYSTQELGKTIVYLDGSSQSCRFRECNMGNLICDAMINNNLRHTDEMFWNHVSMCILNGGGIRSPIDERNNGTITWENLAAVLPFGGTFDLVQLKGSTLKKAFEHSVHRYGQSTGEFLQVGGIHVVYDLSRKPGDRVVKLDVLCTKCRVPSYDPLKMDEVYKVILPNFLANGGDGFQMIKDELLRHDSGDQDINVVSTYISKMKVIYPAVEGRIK
Summary of the method: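 Human CD73 (CHO-derived Trp27-Lys547, His-tagged; 0.5 nM final) was preincubated with compound for 15 min at 25° C. in Tris pH 7.5 buffer with MgCl2. It then reacted with 30 μM AMP for 20 min at 37° C., and released phosphate was read by malachite green absorbance at 635 nm. IC50 came from four-parameter fits against enzyme and no-enzyme controls.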

Row | SMILES | IC50 [1] [nM] | IC50 [2] [nM]
1 | C[C@H](Nc1nc(Cl)nn2c([C@@H]3O[C@H](COP(=O)(O)CP(=O)(O)O)[C@@H](O)[C@H]3O)cnc12)c1cncc(F)c1 [Compound 33, (((((2R,3S,4R,5S)-5-(2-chloro-4-(((S)-1-(5-fluoropyridin-3-yl)ethyl)amino)imidazo[2,1-f][1,2,4]triazin-7-yl)-3,4-dihydroxytetrahydrofuran-2-yl)methoxyxhydroxy)phosphoryl)methyl)phosphonic acid] | 1 to 9.9 | < 10
2 | C[C@@H](Nc1nc(Cl)nn2c([C@@H]3O[C@H](COP(=O)(O)CP(=O)(O)O)[C@@H](O)[C@H]3O)cnc12)c1ccccc1 [Compound 34, [({[(2R,3S,4R,5S)-5-(2-chloro-4-{[(1R)-1-phenylethyl]amino}imidazo[2,1-f][1,2,4]triazin-7-yl)-3,4-dihydroxyoxolan-2-yl]methoxy}(hydroxy)phosphoryl)methyl]phosphonic Acid] | 1 to 9.9 | < 10
3 | C[C@H](Nc1nc(Cl)nn2c([C@@H]3O[C@H](COP(=O)(O)CP(=O)(O)O)[C@@H](O)[C@H]3O)cnc12)c1ccccc1 [Compound 35, (((((2R,3S,4R,1S)-5-(2-chloro-4-(((S)-1-phenylethyl)amino)imidazo[2,1-f][1,2,4]triazin-7-yl)-3,4-dihydroxytetrahydrofuran-2-yl)methoxy)(hydroxy)phosphoryl)methyl)phosphonic Acid] | < 1 | < 10
4 | C[C@H](Nc1nc(Cl)nn2c([C@@H]3O[C@H](COP(=O)(O)CP(=O)(O)O)[C@@H](O)[C@H]3O)cnc12)c1cccc(F)c1 [Compound 36, (((((2R,3S,4R,5S)-5-(2-chloro-4-(((S)-1-(3-fluorophenyl)ethyl)amino)imidazo[2,1-f][1,2,4]triazin-7-yl)-3,4-dihydroxytetrahydrofuran-2-yl)methoxy)(hydroxy)phosphoryl)methyl) phosphonic acid] | < 1 | < 10
5 | C[C@H](Nc1nc(Cl)nn2c([C@@H]3O[C@H](COP(=O)(O)CP(=O)(O)O)[C@@H](O)[C@H]3O)cnc12)c1ccc(F)cc1 [Compound 37, (((((2R,3S,4R,1S)-5-(2-chloro-4-(((S)-1-(4-fluorophenyl)ethyl)amino)imidazo[2,1-f][1,2,4]triazin-7-yl)-3,4-dihydroxytetrahydrofuran-2-yl)methoxy)(hydroxy)phosphoryl)methyl)phosphonic Acid] | < 1 | < 10
6 | CC(C)[C@@H]1CCCN1c1nc(Cl)nn2c([C@@H]3O[C@H](COP(=O)(O)CP(=O)(O)O)[C@@H](O)[C@H]3O)cnc12 [Compound 39, (((((2R,3S,4R,1S)-5-(2-chloro-4-((S)-2-isopropylpyrrolidin-1-yl)imidazo[2,1-f][1,2,4]triazin-7-yl)-3,4-dihydroxytetrahydrofuran-2-yl)methoxy)(hydroxy)phosphoryl)methyl)phosphonic acid] | < 1 | < 10
7 | O=P(O)(O)CP(=O)(O)OC[C@H]1O[C@@H](c2cnc3c(N4CCCC45CCCC5)nc(Cl)nn23)[C@H](O)[C@@H]1O [Compound 40, (((((2R,3S,4R,1S)-5-(2-chloro-4-(1-azaspiro[4.4]nonan-1-yl)imidazo[2,1-f][1,2,4]triazin-7-yl)-3,4-dihydroxytetrahydrofuran-2-yl)methoxy)(hydroxy)phosphoryl)methyl)phosphonic Acid] | 1 to 9.9 | < 10
8 | O=P(O)(O)CP(=O)(O)OC[C@H]1O[C@@H](c2cnc3c(N4CCCC45CCC5)nc(Cl)nn23)[C@H](O)[C@@H]1O [Compound 41, [({[(2R,3S,4R,5S)-5-(4-{5-azaspiro[3.4]octan-5-yl}-2-chloroimidazo[2,1-f][1,2,4]triazin-7-yl)-3,4-dihydroxyoxolan-2-yl]methoxy}(hydroxy)phosphoryl)methyl]phosphonic Acid] | < 1 | < 10
9 | O=P(O)(O)CP(=O)(O)OC[C@H]1O[C@@H](c2cnc3c(N4CCOCC4)nc(Cl)nn23)[C@H](O)[C@@H]1O [Compound 42, (((((2R,3S,4R,5S)-5-(2-chloro-4-morpholinoimidazo[2,1-f][1,2,4]triazin-7-yl)-3,4-dihydroxytetrahydrofuran-2-yl)methoxyxhydroxy)phosphoryl)methyl)phosphonic acid] | < 1 | < 10
10 | O=P(O)(O)CP(=O)(O)OC[C@H]1O[C@@H](c2cnc3c(N4CCCCC4)nc(Cl)nn23)[C@H](O)[C@@H]1O [Compound 43, (((((2R,3S,4R,1S)-5-(2-chloro-4-(piperidin-1-yl)imidazo[2,1-f][1,2,4]triazin-7-yl)-3,4-dihydroxytetrahydrofuran-2-yl)methoxy)(hydroxy)phosphoryl)methyl)phosphonic Acid] | < 1 | < 10
11 | O=P(O)(O)CP(=O)(O)OC[C@H]1O[C@@H](c2cnc3c(N4CCC(F)(F)CC4)nc(Cl)nn23)[C@H](O)[C@@H]1O [Compound 44, (((((2R,3S,4R,1S)-5-(2-chloro-4-(4,4-difluoropiperidin-1-yl)imidazo[2,1-f][1,2,4]triazin-7-yl)-3,4-dihydroxytetrahydrofuran-2-yl)methoxy)(hydroxy)phosphoryl)methyl)phosphonic Acid] | < 1 | < 10
12 | O=P(O)(O)CP(=O)(O)OC[C@H]1O[C@@H](c2cnc3c(N4CC5CC5C4)nc(Cl)nn23)[C@H](O)[C@@H]1O (stereo partly drawn) [Compound 45, [({[(2R,3S,4R,5S)-5-(4-{3-azabicyclo[3.1.0]hexan-3-yl}-2-chloroimidazo[2,1-f][1,2,4]triazin-7-yl)-3,4-dihydroxyoxolan-2-yl]methoxy}(hydroxy)phosphoryl)methyl]phosphonic Acid] | < 1 | < 10
13 | O=P(O)(O)CP(=O)(O)OC[C@H]1O[C@@H](c2cnc3c(N4CCC(F)(F)C4)nc(Cl)nn23)[C@H](O)[C@@H]1O [Compound 46, [({[(2R,3S,4R,5S)-5-[2-chloro-4-(3,3-difluoropyrrolidin-1-yl)imidazo[2,1-f][1,2,4]triazin-7-yl]-3,4-dihydroxyoxolan-2-yl]methoxy}(hydroxy)phosphoryl)methyl]phosphonic Acid] | < 1 | < 10
14 | O=P(O)(O)CP(=O)(O)OC[C@H]1O[C@@H](c2cnc3c(NC4CCOCC4)nc(Cl)nn23)[C@H](O)[C@@H]1O [Compound 47, (((((2R,3S,4R,1S)-5-(2-chloro-4-((tetrahydro-2H-pyran-4-yl)amino)imidazo[2,1-f][1,2,4]triazin-7-yl)-3,4-dihydroxytetrahydrofuran-2-yl)methoxy)(hydroxy)phosphoryl)methyl)phosphonic Acid] | 1 to 9.9 | < 10
15 | O=P(O)(O)CP(=O)(O)OC[C@H]1O[C@@H](c2cnc3c(NC4CCC(F)(F)CC4)nc(Cl)nn23)[C@H](O)[C@@H]1O [Compound 48, [({[(2R,3S,4R,5S)-5-{2-chloro-4-[(4,4-difluorocyclohexyl)amino]imidazo[2,1-f][1,2,4]triazin-7-yl}-3,4-dihydroxyoxolan-2-yl]methoxy}(hydroxy)phosphoryl)methyl]phosphonic Acid] | 1 to 9.9 | < 10
16 | O=P(O)(O)CP(=O)(O)OC[C@H]1O[C@@H](c2cnc3c(NC4CCC(F)(F)C4)nc(Cl)nn23)[C@H](O)[C@@H]1O (stereo partly drawn) [Compound 49, (((((2R,3S,4R,1S)-5-(2-chloro-4-((3,3-difluorocyclopentyl)amino)imidazo[2,1-f][1,2,4]triazin-7-yl)-3,4-dihydroxytetrahydrofuran-2-yl)methoxy)(hydroxy)phosphoryl)methyl)phosphonic Acid] | < 1 | < 10
